Data published in ChEMBL document CHEMBL5260810, “Inhibition of bromodomain-containing protein 9 for the prevention of epigenetically-defined drug resistance” (Bioorg Med Chem Lett, 2017).

Key:
Assay type in all cases: functional, cell-based
COR-L279 = assay: Cytotoxicity against human COR-L279 cells measured after 8 days; settings: COR-L279, 192 h
AGS = assay: Cytotoxicity against human AGS cells measured after 8 days; settings: 192 h
[1] = Cytotoxicity against human HEC-251 cells measured after 8 days; settings: HEC-251, 192 h
NALM-6 = assay: Cytotoxicity against human NALM-6 cells measured after 8 days; settings: NALM-6, 192 h
[2] = Cytotoxicity against human KNS-81 cells measured after 8 days; settings: KNS-81, 192 h
EFM-19 = assay: Cytotoxicity against human EFM-19 cells measured after 8 days; settings: EFM-19, 192 h
[3] = Cytotoxicity against human BM-1604 cells measured after 8 days; settings: BM-1604, 192 h
C3A = assay: Cytotoxicity against human C3A cells measured after 8 days; settings: 192 h
[4] = Cytotoxicity against human COV504 cells measured after 8 days; settings: COV504, 192 h
[5] = Cytotoxicity against human JHH-1 cells measured after 8 days; settings: JHH1, 192 h
SK-N-AS = assay: Cytotoxicity against human SK-N-AS cells measured after 8 days; settings: 192 h
[6] = Cytotoxicity against human KHM-1B cells measured after 8 days; settings: 192 h
[7] = Cytotoxicity against human KLM-1 cells measured after 8 days; settings: KLM1, 192 h
[8] = Cytotoxicity against human SNU-620 cells measured after 8 days; settings: SNU620, 192 h
[9] = Cytotoxicity against human SUIT-2 cells measured after 8 days; settings: SUIT-2, 192 h
SU-DHL10 = assay: Cytotoxicity against human SU-DHL-10 cells measured after 8 days; settings: SU-DHL10, 192 h
[10] = Cytotoxicity against human IGR-39 cells measured after 8 days; settings: IGR-39, 192 h
KYSE-180 = assay: Cytotoxicity against human KYSE-180 cells measured after 8 days; settings: KYSE-180, 192 h
[11] = Cytotoxicity against human NCE-G 22 cells measured after 8 days; settings: NCE-G 22, 192 h
SNG-M = assay: Cytotoxicity against human SNG-M cells measured after 8 days; settings: 192 h
OVCAR-3 = assay: Cytotoxicity against human OVCAR-3 cells measured after 8 days; settings: OVCAR-3, 192 h
[12] = Cytotoxicity against mouse 4T1-Luc cells measured after 8 days; settings: 192 h
[13] = Cytotoxicity against human MCAS cells measured after 8 days; settings: 192 h
G-401 = assay: Cytotoxicity against human G-401 cells measured after 8 days; settings: G-401, 192 h
OVCAR-5 = assay: Cytotoxicity against human OVCAR-5 cells measured after 8 days; settings: OVCAR-5, 192 h
CCF-STTG1 = assay: Cytotoxicity against human CCF-STTG1 cells measured after 8 days; settings: CCF-STTG1, 192 h
SNU-449 = assay: Cytotoxicity against human SNU-449 cells measured after 8 days; settings: SNU-449, 192 h
RPMI-7951 = assay: Cytotoxicity against human RPMI-7951 cells measured after 8 days; settings: RPMI-7951, 192 h
[14] = Cytotoxicity against human KATO III stomach cancer cell line measured after 8 days; settings: 192 h
Hs746T = assay: Cytotoxicity against human Hs746T cells measured after 8 days; settings: 192 h
YAPC = assay: Cytotoxicity against human YAPC cells measured after 8 days; settings: 192 h
[15] = Cytotoxicity against human NCE-G 141 cells measured after 8 days; settings: NCE-G 141, 192 h
[16] = Cytotoxicity against human NB(TU)1 cells measured after 8 days; settings: NB(TU)1, 192 h
DOHH-2 = assay: Cytotoxicity against human DOHH-2 cells measured after 8 days; settings: DOHH-2, 192 h
Karpas-1106P = assay: Cytotoxicity against human KARPAS-1106P cells measured after 8 days; settings: 192 h
SK-N-BE(2) = assay: Cytotoxicity against human SK-N-BE(2) cells measured after 8 days; settings: SKNBE2, 192 h
[17] = Cytotoxicity against human HCC1534 cells measured after 8 days; settings: HCC1534, 192 h
OCI-AML-3 = assay: Cytotoxicity against human OCI-AML-3 cells measured after 8 days; settings: OCI-AML-3, 192 h
MIA PaCa-2 = assay: Cytotoxicity against human MIA Paca-2 cells measured after 8 days; settings: MIA PaCa-2, 192 h
[18] = Cytotoxicity against human OVISE cells measured after 8 days; settings: 192 h
CFPAC-1 = assay: Cytotoxicity against human CFPAC-1 cells measured after 8 days; settings: CFPAC-1, 192 h
[19] = Cytotoxicity against human FTC-238 cells measured after 8 days; settings: FTC-238, 192 h
SW780 = assay: Cytotoxicity against human SW780 cells measured after 8 days; settings: SW780, 192 h
MCF-10A = assay: Cytotoxicity against human MCF-10A PTEN-/- cells measured after 8 days; settings: 192 h
A-431 = assay: Cytotoxicity against human A-431 cells measured after 8 days; settings: A-431, 192 h
[20] = Cytotoxicity against mouse LL2 cells measured after 8 days; settings: Lewis lung carcinoma, 192 h
IPC-298 = assay: Cytotoxicity against human IPC-298 cells measured after 8 days; settings: IPC-298, 192 h
HCT-8 = assay: Cytotoxicity against human HCT-8 cells measured after 8 days; settings: HCT-8, 192 h
SK-OV-3 = assay: Cytotoxicity against human SK-OV-3 cells measured after 8 days; settings: SK-OV-3, 192 h
[21] = Cytotoxicity against human NJG cells measured after 8 days; settings: 192 h
[22] = Cytotoxicity against human HCC60 cells measured after 8 days; settings: HCC60, 192 h
[23] = Cytotoxicity against human COLO 818 cells measured after 8 days; settings: COLO 818, 192 h
MM1.S = assay: Cytotoxicity against human MM1.S cells measured after 8 days; settings: 192 h
[24] = Cytotoxicity against human SKG-IIIb cells measured after 8 days; settings: 192 h
KLE = assay: Cytotoxicity against human KLE cells measured after 8 days; settings: 192 h
SK-MEL-30 = assay: Cytotoxicity against human SK-MEL-30 cells measured after 8 days; settings: SK-MEL-30, 192 h
[25] = Cytotoxicity against human BT-B cells measured after 8 days; settings: 192 h
[26] = Cytotoxicity against human PaTu 8988s cells measured after 8 days; settings: 192 h
B16-F10 = assay: Cytotoxicity against mouse B16-F10 Luciferase cells measured after 8 days; settings: B16-F10, 192 h
WM 266-4 = assay: Cytotoxicity against human WM266-4 cells measured after 8 days; settings: WM 266-4, 192 h
GB-1 = assay: Cytotoxicity against human GB-1 cells measured after 8 days; settings: GB-1, 192 h
[27] = Cytotoxicity against human HLF cells measured after 8 days; settings: 192 h
Capan-2 = assay: Cytotoxicity against human Capan-2 cells measured after 8 days; settings: Capan-2, 192 h

Question: Which results are given for `C/C=C/Cn1cc(-c2ccc(C(C)(C)O)cc2OC)c2cc[nH]c2c1=O`?
Answer: IC50 (COR-L279): 20 µM; IC50 (AGS): 20 µM; IC50 [1]: 20 µM; IC50 (NALM-6): 20 µM; IC50 [2]: 20 µM; IC50 (EFM-19): 20 µM; IC50 [3]: 20 µM; IC50 (C3A): 20 µM; IC50 [4]: 20 µM; IC50 [5]: 20 µM; IC50 (SK-N-AS): 20 µM; IC50 [6]: 20 µM; IC50 [7]: 20 µM; IC50 [8]: 20 µM; IC50 [9]: 20 µM; IC50 (SU-DHL10): 10.9 µM; IC50 [10]: 20 µM; IC50 (KYSE-180): 20 µM; IC50 [11]: 20 µM; IC50 (SNG-M): 20 µM; IC50 (OVCAR-3): 20 µM; IC50 [12]: 20 µM; IC50 [13]: 20 µM; IC50 (G-401): 20 µM; IC50 (OVCAR-5): 20 µM; IC50 (CCF-STTG1): 20 µM; IC50 (SNU-449): 20 µM; IC50 (RPMI-7951): 20 µM; IC50 [14]: 20 µM; IC50 (Hs746T): 20 µM; IC50 (YAPC): 20 µM; IC50 [15]: 20 µM; IC50 [16]: 20 µM; IC50 (DOHH-2): 10.7 µM; IC50 (Karpas-1106P): 8.61 µM; IC50 (SK-N-BE(2)): 20 µM; IC50 [17]: 20 µM; IC50 (OCI-AML-3): 20 µM; IC50 (MIA PaCa-2): 20 µM; IC50 [18]: 20 µM; IC50 (CFPAC-1): 20 µM; IC50 [19]: 9.52 µM; IC50 (SW780): 20 µM; IC50 (MCF-10A): 20 µM; IC50 (A-431): 20 µM; IC50 [20]: 20 µM; IC50 (IPC-298): 20 µM; IC50 (HCT-8): 20 µM; IC50 (SK-OV-3): 20 µM; IC50 [21]: 20 µM; IC50 [22]: 20 µM; IC50 [23]: 20 µM; IC50 (MM1.S): 20 µM; IC50 [24]: 20 µM; IC50 (KLE): 20 µM; IC50 (SK-MEL-30): 20 µM; IC50 [25]: 20 µM; IC50 [26]: 20 µM; IC50 (B16-F10): 20 µM; IC50 (WM 266-4): 20 µM; IC50 (GB-1): 20 µM; IC50 [27]: 20 µM; IC50 (Capan-2): 20 µM

Question: What does the source list for `C/C=C/Cn1cc(-c2ccc(C(=O)N3CCOCC3)cc2)c2cc[nH]c2c1=O`?
Answer: IC50 (COR-L279): 20 µM; IC50 (AGS): 20 µM; IC50 [1]: 20 µM; IC50 (NALM-6): 18.8 µM; IC50 [2]: 20 µM; IC50 (EFM-19): 20 µM; IC50 [3]: 20 µM; IC50 (C3A): 20 µM; IC50 [4]: 20 µM; IC50 [5]: 20 µM; IC50 (SK-N-AS): 20 µM; IC50 [6]: 20 µM; IC50 [7]: 20 µM; IC50 [8]: 20 µM; IC50 [9]: 20 µM; IC50 (SU-DHL10): 20 µM; IC50 [10]: 20 µM; IC50 (KYSE-180): 20 µM; IC50 [11]: 20 µM; IC50 (SNG-M): 20 µM; IC50 (OVCAR-3): 20 µM; IC50 [12]: 20 µM; IC50 [13]: 20 µM; IC50 (G-401): 20 µM; IC50 (OVCAR-5): 20 µM; IC50 (CCF-STTG1): 20 µM; IC50 (SNU-449): 20 µM; IC50 (RPMI-7951): 20 µM; IC50 [14]: 20 µM; IC50 (Hs746T): 20 µM; IC50 (YAPC): 20 µM; IC50 [15]: 20 µM; IC50 [16]: 20 µM; IC50 (DOHH-2): 16.1 µM; IC50 (Karpas-1106P): 12.2 µM; IC50 (SK-N-BE(2)): 20 µM; IC50 [17]: 20 µM; IC50 (OCI-AML-3): 11.3 µM; IC50 (MIA PaCa-2): 20 µM; IC50 [18]: 20 µM; IC50 (CFPAC-1): 20 µM; IC50 [19]: 20 µM; IC50 (SW780): 20 µM; IC50 (MCF-10A): 20 µM; IC50 (A-431): 20 µM; IC50 [20]: 20 µM; IC50 (IPC-298): 18.6 µM; IC50 (HCT-8): 20 µM; IC50 (SK-OV-3): 20 µM; IC50 [21]: 20 µM; IC50 [22]: 20 µM; IC50 [23]: 20 µM; IC50 (MM1.S): 20 µM; IC50 [24]: 20 µM; IC50 (KLE): 20 µM; IC50 (SK-MEL-30): 20 µM; IC50 [25]: 20 µM; IC50 [26]: 20 µM; IC50 (B16-F10): 20 µM; IC50 (WM 266-4): 20 µM; IC50 (GB-1): 20 µM; IC50 [27]: 20 µM; IC50 (Capan-2): 20 µM
